Experimental data reported in PubChem BioAssay AID330 (DTP/NCI, 2004).
Values joined by “and” are separate entries in the source; they are usually repeats but may differ in a detail not shown here. Equal values may be shown once. Inconclusive results and toxic doses are left out. Peptide text beside a SMILES is read from it. * marks the point of attachment. Bn = c1ccc(C*)cc1

Test system: P388 leukemia ip, CD2F1 mice, survival T/C
Experiment: NCI In Vivo Anticancer Drug Screen. Data for tumor model P388 Leukemia (intraperitoneal) in CD2F1 (CDF1) mice
Conditions: endpoint: median survival time, higher = longer survival
Outline: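 Mice carrying the transplanted tumor received test compound or vehicle. Survival was recorded in each group, and the value is the treated-group measurement divided by that of the vehicle-treated control group.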

[1] = dose: 100.0 mg/kg/injection, schedule: Q01DX001 (ip), vehicle: saline with Tween-80
[2] = dose: 200.0 mg/kg/injection, schedule: Q01DX001 (ip), vehicle: saline with Tween-80
[3] = dose: 400.0 mg/kg/injection, schedule: Q01DX001 (ip), vehicle: saline with Tween-80
[4] = dose: 60.0 mg/kg/injection, schedule: Q01DX005 (ip), vehicle: saline with Tween-80
[5] = dose: 120.0 mg/kg/injection, schedule: Q01DX005 (ip), vehicle: saline with Tween-80
[6] = dose: 240.0 mg/kg/injection, schedule: Q01DX005 (ip), vehicle: saline with Tween-80
[7] = dose: 60.0 mg/kg/injection, schedule: Q01DX005 (ip), vehicle: Klucel (hydroxypropylcellulose) (HPC)
[8] = dose: 120.0 mg/kg/injection, schedule: Q01DX005 (ip), vehicle: Klucel (hydroxypropylcellulose) (HPC)
[9] = dose: 100.0 mg/kg/injection, schedule: Q04DX003 (ip), vehicle: saline with Tween-80
[10] = dose: 200.0 mg/kg/injection, schedule: Q04DX003 (ip), vehicle: saline with Tween-80
[11] = dose: 400.0 mg/kg/injection, schedule: Q04DX003 (ip), vehicle: saline with Tween-80
[12] = dose: 30.0 mg/kg/injection, schedule: Q01DX005 (ip), vehicle: saline with Tween-80
[13] = dose: 50.0 mg/kg/injection, schedule: Q01DX009 (ip), vehicle: Klucel (hydroxypropylcellulose) (HPC)
[14] = dose: 100.0 mg/kg/injection, schedule: Q01DX009 (ip), vehicle: Klucel (hydroxypropylcellulose) (HPC)
[15] = dose: 200.0 mg/kg/injection, schedule: Q01DX009 (ip), vehicle: Klucel (hydroxypropylcellulose) (HPC)
[16] = dose: 25.0 mg/kg/injection, schedule: Q01DX009 (ip), vehicle: Klucel (hydroxypropylcellulose) (HPC)
[17] = dose: 25.0 mg/kg/injection, schedule: Q01DX009 (ip), vehicle: other
[18] = dose: 50.0 mg/kg/injection, schedule: Q01DX009 (ip), vehicle: other
[19] = dose: 100.0 mg/kg/injection, schedule: Q01DX009 (ip), vehicle: other
[20] = dose: 200.0 mg/kg/injection, schedule: Q01DX009 (ip), vehicle: other
[21] = dose: 400.0 mg/kg/injection, schedule: Q01DX009 (ip), vehicle: other
[22] = dose: 50.0 mg/kg/injection, schedule: Q01DX005 (ip), vehicle: Klucel (hydroxypropylcellulose) (HPC)
[23] = dose: 100.0 mg/kg/injection, schedule: Q01DX005 (ip), vehicle: Klucel (hydroxypropylcellulose) (HPC)

CC(=O)Nc1ccccc1/C=C/c1ccccn1
T/C [1]: 106 % of control
T/C [2]: 106 % of control
T/C [3]: 95 % of control

Cc1cccc(NC(=O)Oc2ccc(C#N)cc2)c1
T/C [4]: 97 % of control
T/C [5]: 109 % of control
T/C [6]: 106 % of control

NC(CSC(c1ccccc1)(c1ccccc1)c1ccc2ccccc2c1)C(=O)O (centres undefined)
T/C (dose: 3.13 mg/kg/injection, schedule: Q01DX009 (ip), vehicle: saline with Tween-80): 186 % of control
T/C (dose: 3.13 mg/kg/injection, schedule: Q01DX009 (ip), vehicle: water): 169 % of control
T/C (dose: 6.25 mg/kg/injection, schedule: Q01DX009 (ip), vehicle: saline with Tween-80): 198 % of control
T/C (dose: 6.25 mg/kg/injection, schedule: Q01DX009 (ip), vehicle: water): 189 % of control
T/C (dose: 12.5 mg/kg/injection, schedule: Q01DX009 (ip), vehicle: saline with Tween-80): 261 % of control
T/C (dose: 12.5 mg/kg/injection, schedule: Q01DX009 (ip), vehicle: water): 216 % of control
T/C (dose: 25.0 mg/kg/injection, schedule: Q01DX009 (ip), vehicle: saline with Tween-80): 90 % of control
T/C (dose: 25.0 mg/kg/injection, schedule: Q01DX009 (ip), vehicle: water): 99 % of control

COc1cc(OC)c(C(C)=O)c(OC)c1OC
T/C (dose: 50.0 mg/kg/injection, schedule: Q01DX009 (ip), vehicle: saline with Tween-80): 106 % of control
T/C (dose: 100.0 mg/kg/injection, schedule: Q01DX009 (ip), vehicle: saline with Tween-80): 113 % of control
T/C (dose: 200.0 mg/kg/injection, schedule: Q01DX009 (ip), vehicle: saline with Tween-80): 106 % of control

COC(=O)c1nc(N)nc(C(=O)OC)c1C(=O)c1ccc(Cl)cc1
T/C [7]: 103 % of control
T/C [8]: 101 % of control

CC/C(C=O)=C\NC(=O)Nc1ccccc1
T/C [1]: 97 % of control
T/C [2]: 101 % of control
T/C [3]: 98 % of control

O=C(O)c1cccc(-c2c3ccc(=O)cc-3oc3cc(O)ccc23)c1
T/C [7]: 104 % of control
T/C [8]: 113 % of control
T/C (dose: 240.0 mg/kg/injection, schedule: Q01DX005 (ip), vehicle: Klucel (hydroxypropylcellulose) (HPC)): 110 % of control

COc1cc[c]([Pb]([O]C(C)=O)([O]C(C)=O)[O]C(C)=O)cc1
T/C [9]: 103 % of control
T/C [10]: 103 % of control
T/C [11]: 111 % of control

c1ccc(CNSC(c2ccccc2)(c2ccccc2)c2ccccc2)cc1
T/C (dose: 100.0 mg/kg/injection, schedule: Q04DX002 (ip), vehicle: saline with Tween-80): 101 % of control
T/C (dose: 200.0 mg/kg/injection, schedule: Q04DX002 (ip), vehicle: saline with Tween-80): 102 % of control
T/C (dose: 400.0 mg/kg/injection, schedule: Q04DX002 (ip), vehicle: saline with Tween-80): 92 % of control

COc1ccc(C2C3=C(CCCC3=O)Oc3cc4c(cc32)OCO4)cc1 (centres undefined)
T/C (dose: 7.5 mg/kg/injection, schedule: Q01DX005 (ip), vehicle: saline with Tween-80): 100 % of control
T/C (dose: 15.0 mg/kg/injection, schedule: Q01DX005 (ip), vehicle: saline with Tween-80): 94 % of control
T/C [12]: 92 % of control
T/C [4]: 90 % of control and 91 % of control

NC(=S)N1CC=CCC1
T/C [13]: 99 % of control
T/C [14]: 101 % of control
T/C [15]: 101 % of control

CCOC(=O)C(CC)Oc1cccc2c1oc1ccccc12 (centres undefined)
T/C [16]: 103 % of control
T/C [13]: 106 % of control
T/C [14]: 101 % of control
T/C [15]: 109 % of control

COCCc1nn[nH]n1
T/C (dose: 50.0 mg/kg/injection, schedule: Q01DX009 (ip), vehicle: saline): 110 % of control
T/C (dose: 100.0 mg/kg/injection, schedule: Q01DX009 (ip), vehicle: saline): 115 % of control
T/C (dose: 200.0 mg/kg/injection, schedule: Q01DX009 (ip), vehicle: saline): 109 % of control

CCCCCCCCCCCCCCCCCC(=O)NCNC(=O)CCCCCCCCCCCCCCCCC
T/C (dose: 4.68 mg/kg/injection, schedule: Q01DX009 (ip), vehicle: saline with Tween-80): 100 % of control
T/C (dose: 9.37 mg/kg/injection, schedule: Q01DX009 (ip), vehicle: saline with Tween-80): 100 % of control
T/C (dose: 9.37 mg/kg/injection, schedule: Q04DX003 (ip), vehicle: saline): 100 % of control
T/C (dose: 18.75 mg/kg/injection, schedule: Q01DX009 (ip), vehicle: saline with Tween-80): 90 % of control
T/C (dose: 18.75 mg/kg/injection, schedule: Q04DX003 (ip), vehicle: saline): 95 % of control

NCC(=O)NCC(=O)NC(Cc1ccc(OCc2ccccc2)cc1)C(=O)NC(CCCN=C(N)N)C(=O)O (centres undefined) (H-GGY(Bn)R-OH; configuration not given here)
T/C (dose: 60.0 mg/kg/injection, schedule: Q01DX005 (ip), vehicle: saline): 95 % of control
T/C (dose: 120.0 mg/kg/injection, schedule: Q01DX005 (ip), vehicle: saline): 100 % of control
T/C (dose: 240.0 mg/kg/injection, schedule: Q01DX005 (ip), vehicle: saline): 100 % of control

CC1=NC(c2ccccn2)=NNC(c2ccccn2)=C1c1ccccc1
T/C [17]: 113 % of control
T/C [18]: 116 % of control
T/C [19]: 116 % of control
T/C [20]: 114 % of control
T/C [21]: 120 % of control

CN(CCO)CNC(=O)C1=C(O)C2(O)C(=O)C3=C(O)c4c(O)cccc4C(C)(O)C3CC2C(N(C)C)C1=O (centres undefined)
T/C [22]: 105 % of control
T/C [23]: 103 % of control
T/C (dose: 200.0 mg/kg/injection, schedule: Q01DX005 (ip), vehicle: Klucel (hydroxypropylcellulose) (HPC)): 100 % of control

C[C@@H]1C[C@H]2OC(=O)[C@@]3(C)CCC[C@@](C)([C@@H]23)[C@@]1(O)CCc1ccoc1
T/C (dose: 12.5 mg/kg/injection, schedule: Q01DX005 (ip), vehicle: Klucel (hydroxypropylcellulose) (HPC)): 108 % of control
T/C (dose: 25.0 mg/kg/injection, schedule: Q01DX005 (ip), vehicle: Klucel (hydroxypropylcellulose) (HPC)): 105 % of control
T/C [22]: 106 % of control
T/C [23]: 97 % of control

N#Cc1nnc2cc(-c3ccccc3)nn2c1-c1ccco1
T/C [7]: 98 % of control
T/C [8]: 90 % of control

CC(=O)c1ccc(-c2ccccc2)cc1
T/C [9]: 91 % of control
T/C [10]: 91 % of control
T/C [11]: 95 % of control

COc1cc(/C=C/C(NC(C)=O)c2cccc(O)c(=O)c2)cc(OC)c1OC (centres undefined)
T/C (dose: 12.5 mg/kg/injection, schedule: Q01DX009 (ip), vehicle: Klucel (hydroxypropylcellulose) (HPC)): 90 % of control
T/C [16]: 93 % of control
T/C [13]: 98 % of control
T/C [14]: 107 % of control
T/C [15]: 116 % of control

N#CCCN/N=C\c1ccc2c(c1)OCO2
T/C [9]: 102 % of control
T/C [10]: 96 % of control
T/C [11]: 92 % of control

c1csc(CSc2ncnc3nc[nH]c23)c1
T/C [9]: 100 % of control
T/C [10]: 100 % of control
T/C (dose: 264.0 mg/kg/injection, schedule: Q04DX003 (ip), vehicle: saline with Tween-80): 100 % of control
T/C [11]: 109 % of control

CCOC(=O)C(NC(C)=O)(C(=O)OCC)c1ccc([N+](=O)[O-])cn1
T/C [17]: 92 % of control
T/C [18]: 90 % of control
T/C [19]: 95 % of control
T/C [20]: 95 % of control
T/C [21]: 102 % of control

O=C(Nc1ccccc1)c1cc2ccccc2oc1=O
T/C [12]: 99 % of control
T/C [4]: 95 % of control
T/C [5]: 94 % of control
T/C [6]: 100 % of control

CC(C)(C)OC(=O)NC(CCC(=O)O)(Cc1ccccc1)C(=O)NC(CCC(=O)O)(Cc1ccccc1)C(=O)OCc1ccccc1 (centres undefined)
T/C (dose: 6.25 mg/kg/injection, schedule: Q01DX005 (ip), vehicle: saline with Tween-80): 98 % of control
T/C (dose: 12.5 mg/kg/injection, schedule: Q01DX005 (ip), vehicle: saline with Tween-80): 105 % of control
T/C (dose: 25.0 mg/kg/injection, schedule: Q01DX005 (ip), vehicle: saline with Tween-80): 88 % of control
